Experimental findings from ChEMBL document CHEMBL1136220, “Synthesis and cytotoxic activity of A-ring modified betulinic acid derivatives” (2003) are described below.

In brackets after ≈: the same amount, converted by molar mass.

Type in all cases: functional
In one experiment the test system is B16-F10. Description: Cytotoxic activity towards B16-F10 cells. Conditions: Mus musculus, read-out: ED50 (the source's name).
In the next experiment the test system is A549. The experiment is described as follows: Cytotoxic activity towards A-549 cells. The note with it: Homo sapiens, read-out: ED50 (the source's name).
The next experiment deals with SK-MEL-2. The experiment is described as follows: Cytotoxic activity towards M2 cells (SK-MEL-2). The note with it: Homo sapiens, read-out: ED50 (the source's name).

`COC(=O)[C@]12CC[C@@H](C(C)C)C1C1CC[C@@H]3[C@@]4(C)C=C(OC)C(=O)C(C)(C)C4CC[C@@]3(C)[C@]1(C)CC2` (stereo not given in full): the EC50 in the experiment with B16-F10, in the experiment on A549 and in the experiment with SK-MEL-2 was greater than 30 µg/mL each time.
`C=C(C)[C@@H]1CC[C@]2(C(=O)O)CC[C@]3(C)C(CC[C@@H]4[C@@]5(C)CC(C=O)=C(O)C(C)(C)C5CC[C@]43C)C12` (stereo not given in full): the EC50 is greater than 30 µg/mL with B16-F10, 2.76 µg/mL (≈ 5.72 µM) with A549 and greater than 30 µg/mL with SK-MEL-2.
Take `C=C(C)[C@@H]1CC[C@]2(C(=O)OC)CC[C@]3(C)C(CC[C@@H]4[C@@]5(C)C=C(C#N)C(=O)C(C)(C)C5CC[C@]43C)C12` (stereo not given in full): the EC50 in the experiment on B16-F10 was found to be 3.57 µg/mL (≈ 7.26 µM); in the experiment with A549, 4.55 µg/mL (≈ 9.25 µM); in the experiment on SK-MEL-2, 2.12 µg/mL (≈ 4.31 µM).
On to `COC(=O)[C@]12CC[C@@H](C(C)C)C1C1CC[C@@H]3[C@@]4(C)Cc5cnoc5C(C)(C)C4CC[C@@]3(C)[C@]1(C)CC2` (stereo not given in full), for which the EC50 in the experiment with B16-F10, in the experiment with A549 and in the experiment with SK-MEL-2 was greater than 30 µg/mL throughout.
For the compound `C=C(C)[C@@H]1CC[C@]2(C(=O)OC)CC[C@]3(C)C(CC[C@@H]4[C@@]5(C)Cc6cnoc6C(C)(C)C5CC[C@]43C)C12` (stereo not given in full), the EC50 with B16-F10, in the experiment with A549 and in the experiment with SK-MEL-2 was greater than 30 µg/mL in each case.
Turning to `COC(=O)[C@]12CC[C@@H](C(C)C)C1C1CCC3[C@]4(C)C(CC[C@@]3(C)[C@]1(C)CC2)C(C)(C)C(=O)[C@@H]1O[C@@H]14` (stereo not given in full), the EC50 with B16-F10, in the experiment with A549 and with SK-MEL-2 was greater than 30 µg/mL each time.
For `COC(=O)[C@]12CC[C@@H](C(C)C)C1C1CC[C@@H]3[C@@]4(C)C=CC(=O)C(C)(C)C4CC[C@@]3(C)[C@]1(C)CC2` (stereo not given in full), the EC50 in the experiment with B16-F10, with A549 and in the experiment with SK-MEL-2 was greater than 30 µg/mL in each case.
In the case of `C=C(C)[C@@H]1CC[C@]2(C(=O)OC)CC[C@]3(C)C(CC[C@@H]4[C@@]5(C)CC(C=O)=C(O)C(C)(C)C5CC[C@]43C)C12` (stereo not given in full), the EC50 in the experiment on B16-F10, in the experiment on A549 and in the experiment on SK-MEL-2 was greater than 30 µg/mL in each case.
For the compound `CC(C)[C@@H]1CC[C@]2(C(=O)O)CC[C@]3(C)C(CC[C@@H]4[C@@]5(C)C=CC(=O)C(C)(C)C5CC[C@]43C)C12` (stereo not given in full), the EC50 was 1.75 µg/mL (≈ 3.85 µM) with B16-F10, 2.89 µg/mL (≈ 6.36 µM) with A549 and 2.29 µg/mL (≈ 5.04 µM) with SK-MEL-2.
In the same order, the values of `COC(=O)[C@]12CC[C@@H](C(C)C)C1C1CC[C@@H]3[C@@]4(C)C=C(C=O)C(=O)C(C)(C)C4CC[C@@]3(C)[C@]1(C)CC2` (stereo not given in full) are 0.29 µg/mL (≈ 0.584 µM), 0.31 µg/mL (≈ 0.624 µM) and 0.73 µg/mL (≈ 1.47 µM).
On to `CC(C)[C@@H]1CC[C@]2(C(=O)O)CC[C@]3(C)C(CC[C@@H]4[C@@]5(C)C=C(Cl)C(=O)C(C)(C)C5CC[C@]43C)C12` (stereo not given in full), for which the EC50 in the experiment on B16-F10 is 1.55 µg/mL (≈ 3.17 µM); with A549 it was 1.01 µg/mL (≈ 2.06 µM); in the experiment with SK-MEL-2 it was 0.13 µg/mL (≈ 0.266 µM).
On to `CC(C)[C@@H]1CC[C@]2(C(=O)O)CC[C@]3(C)C(CC[C@@H]4[C@@]5(C)Cc6cnoc6C(C)(C)C5CC[C@]43C)C12` (stereo not given in full), for which the EC50 in the experiment on B16-F10 came out at 1.57 µg/mL (≈ 3.26 µM); with A549, 2.7 µg/mL (≈ 5.6 µM); in the experiment with SK-MEL-2, 1.15 µg/mL (≈ 2.39 µM).
Consider `COC(=O)[C@]12CC[C@@H](C(C)C)C1C1CC[C@@H]3[C@@]4(C)C=C(Cl)C(=O)C(C)(C)C4CC[C@@]3(C)[C@]1(C)CC2` (stereo not given in full), for which the EC50 in the experiment on B16-F10, with A549 and in the experiment on SK-MEL-2 was greater than 30 µg/mL each time.
Consider `CC(C)[C@@H]1CC[C@]2(C(=O)O)CC[C@]3(C)C(CC[C@@H]4[C@@]5(C)C=C(C=O)C(=O)C(C)(C)C5CC[C@]43C)C12` (stereo not given in full), for which the EC50 in the experiment on B16-F10 was determined as 0.3 µg/mL (≈ 0.621 µM); in the experiment on A549, 0.17 µg/mL (≈ 0.352 µM); in the experiment with SK-MEL-2, 0.26 µg/mL (≈ 0.539 µM).
Turning to `CC(C)[C@@H]1CC[C@]2(C(=O)O)CC[C@]3(C)C(CC[C@@H]4[C@@]5(C)C=C(C#N)C(=O)C(C)(C)C5CC[C@]43C)C12` (stereo not given in full), the values for the EC50 in the experiment with B16-F10, in the experiment on A549 and with SK-MEL-2 were 1.43 µg/mL (≈ 2.98 µM), 1.32 µg/mL (≈ 2.75 µM) and 0.81 µg/mL (≈ 1.69 µM), respectively.
Regarding `COC(=O)[C@]12CC[C@@H](C(C)C)C1C1CC[C@@H]3[C@@]4(C)CC(C=O)=C(O)C(C)(C)C4CC[C@@]3(C)[C@]1(C)CC2` (stereo not given in full), the EC50 with B16-F10, in the experiment on A549 and with SK-MEL-2 was greater than 30 µg/mL each time.
Take `C=C(C)[C@@H]1CC[C@]2(C(=O)O)CC[C@]3(C)[C@H](CC[C@@H]4[C@@]5(C)CC[C@H](O)C(C)(C)[C@@H]5CC[C@]43C)[C@@H]12` [BETULINIC ACID]: the EC50 in the experiment with B16-F10 worked out at 4.98 µg/mL (≈ 10.9 µM); with A549, 7.7 µg/mL (≈ 16.9 µM); with SK-MEL-2, 7.62 µg/mL (≈ 16.7 µM).
For the compound `COC(=O)[C@]12CC[C@@H](C(C)C)C1C1CC[C@@H]3[C@@]4(C)C=C(C#N)C(=O)C(C)(C)C4CC[C@@]3(C)[C@]1(C)CC2` (stereo not given in full), the results for the EC50 in the experiment with B16-F10, with A549 and in the experiment on SK-MEL-2 were 0.8 µg/mL (≈ 1.62 µM), 13 µg/mL (≈ 26.3 µM) and 1.25 µg/mL (≈ 2.53 µM), respectively.
In the same order, the values of `C=C(C)[C@@H]1CC[C@]2(C(=O)O)CC[C@]3(C)C(CC[C@@H]4[C@@]5(C)Cc6cnoc6C(C)(C)C5CC[C@]43C)C12` (stereo not given in full) are 3.11 µg/mL (≈ 6.48 µM), 1.54 µg/mL (≈ 3.21 µM) and 16.6 µg/mL (≈ 34.6 µM).
The matching figures for `CC(C)[C@@H]1CC[C@]2(C(=O)O)CC[C@]3(C)C(CC[C@@H]4[C@@]5(C)CC(C=O)=C(O)C(C)(C)C5CC[C@]43C)C12` (stereo not given in full): 1.66 µg/mL (≈ 3.42 µM), 2.2 µg/mL (≈ 4.54 µM) and 3.76 µg/mL (≈ 7.76 µM).
